Values joined by “and” are separate entries in the source; they are usually repeats but may differ in a detail not shown here. Identical values can stand only once.
Experiments:
[1] = Example 1: plasma CORT radioimmunoassay after injection, chickens; assay type: in vivo, chicken; settings: hens
Method: Approximately 19 h following the appearance of a mid-sequence egg, females received one of three treatments: (1) a high dose of CORT (2 mg in 0.5 ml peanut oil), (2) a control treatment (0.5 ml peanut oil), or (3) no injection treatment. The egg corresponding to the next ovulation event was labeled, collected, and incubated at 37° C. for a period of 7 days to allow for embryonic development. Embryos were separated and sexed using PCR based techniques as described above. The percentage of females producing male offspring in each group were calculated and compared using chi square analyses. Also, as described above, blood samples were taken from a subset of females one hour and four hours after injection to verify that the CORT treatment did, in fact, elevate maternal CORT concentrations at the time of meiotic segregation. CORT was quantified using a standard radioimmunoassay and CORT concentrations were log transformed and analyzed using an analysis of variance (ANOVA).

[2] = test system: Hyline W-36 and Brown layer hens; test: Example 3: offspring sex ratio after acute corticosterone injection five hours before ovulation, laying hens; assay type: in vivo, chicken
Method: Hyline W-36 and Brown layer hens were housed in individual layer cages in a single room, had ad libitum access to food and water, and maintained on a 14 h L:10 h D light schedule. Hens were artificially inseminated biweekly with pooled semen from 8 roosters to ensure egg fertilization. Hens were monitored throughout the day for egg-laying and eggs were collected manually every 2 h during peak-laying hours. Previous studies in laying hens have shown that ovulation occurs within 30 minutes of oviposition (Johnson, A. L. Reproduction in the female, in Sturkie's Avian Physiology. G. C. Whittow, Editor. 2000, Academic Press: New York, N.Y. p. 569-596); therefore, egg laying patterns can be used to predict the timing of ovulation.
Injection treatments were administered to hens subcutaneously in the back of the neck five hours prior to the predicted time of ovulation with one of the following treatments: 0.5 ml of control peanut oil (CONT) or 1.5 mg corticosterone dissolved in 0.5 ml of peanut oil (CORT). Ovulated follicles took 24 h to pass through the remainder of the reproductive tract and were collected at oviposition (FIG. 6). […]
Statistical Analysis. […] Plasma corticosterone concentrations were analyzed among treatment groups and time points using an ANOVA and differences among individual treatment groups were analyzed using Fisher's PLSD. […]

[3] = Example 3: plasma corticosterone radioimmunoassay after injection, laying hens; assay type: in vivo, chicken; settings: 1.5 mg
Method: Radioimmunoassays. Blood samples were collected from a separate set of hens to verify that CORT treatment elevated plasma corticosterone during the completion of meiotic segregation. Relative to the injections described above (5 h prior to ovulation), blood samples were collected from half of the CORT, CONT, and UN-treated hens at 1 h and the other half at 4 h (FIG. 6). Blood samples were collected from the brachial vein within 3 min of initial handling to avoid variation due to handling stress (Romero and Reed, 2005, Comp Biochem Physiol A; 140:73-79). Extraction and radioimmunoassay of plasma corticosterone were completed as described by Mendonça et al. (Mendonça et al., 1996, Horm Behav; 30:153-161). Twenty-four blood samples were analyzed from UN-treated hens (12 from each time period), 12 from CONT-treated hens (5 and 7 at 1 h and 4 h, respectively), and 12 from CORT-treated hens (6 from each time period).
Statistical Analysis. […] All hormone data were non-normally distributed and were log-transformed for statistical analysis. Plasma corticosterone concentrations were analyzed among treatment groups and time points using an ANOVA and differences among individual treatment groups were analyzed using Fisher's PLSD. Statistical analyses were carried out using Statview software (SAS Institute, Cary, N.C. USA).

[4] = test system: Hyline W-36 and Brown layer hens; test: Example 3: ovulation and oviposition rates after injection, laying hens; assay type: in vivo, chicken; settings: 1.5 mg subcutaneously
Method: Injection treatments were administered to hens subcutaneously in the back of the neck five hours prior to the predicted time of ovulation with one of the following treatments: 0.5 ml of control peanut oil (CONT) or 1.5 mg corticosterone dissolved in 0.5 ml of peanut oil (CORT). Ovulated follicles took 24 h to pass through the remainder of the reproductive tract and were collected at oviposition (FIG. 6). Eggs were also collected on the day prior to injections and were considered the unmanipulated group (UN). […] Eggs were incubated for 10 days at 37.5° C. and 58% relative humidity in a Natureform incubator.

[5] = Testosterone concentrations after a pharmacological dose of CORT (Examples 1 and 2); assay type: in vivo, zebra finches; settings: within 1-3 hours of administration
[6] = test system: laying hens; test: Preliminary studies with silastic CORT implants: CORT concentrations and laying patterns; assay type: in vivo, chicken
Method: Additionally, concentrations of CORT and three other hormonal factors known to interact with CORT and ovarian follicular development—testosterone, progesterone, and leptin—will be measured in blood samples taken 4 h after ovulation as well as 4 and 6 h prior to ovulation in females from both treatment groups on days 3, 6, and 12 (to correspond with ovulation of collected eggs above). CORT concentrations will be measured in the yolk of each collected egg as well. […] Additionally, laying patterns were monitored for 2 weeks following implantation and 100% of birds implanted with CORT implants continued to lay at a similar frequency compared to before implantation, illustrating that we will be able to collect eggs from birds following this chronic implant treatment.

[7] = test system: avian species; settings: long-term silastic implants, literature; cited from earlier work

C[C@]12C[C@H](O)[C@H]3[C@@H](CCC4=CC(=O)CC[C@@]43C)[C@@H]1CC[C@@H]2C(=O)CO [corticosterone]
circulating CORT concentrations compared to controls ([1]; 2 mg CORT in 0.5 ml peanut oil, within one hour of injection, p<0.0001): significantly increased circulating CORT concentrations | circulating CORT concentrations compared to controls ([1]; 2 mg CORT, four hours post-injection): This difference disappeared | males produced (offspring sex ratio) ([2]; 1.5 mg in 0.5 ml peanut oil subcutaneously five hours before ovulation, p=0.01 vs all hens the day before, p=0.72 vs control injection): ~83% and 82.6% | males produced after treatment compared to before treatment, same hens ([2]; 1.5 mg, target versus pre-target eggs, p=0.02): produced significantly more males | plasma corticosterone levels compared to CONT and UN treated hens ([3]; 1 h after injection, p<0.0001 in both cases): significantly raised corticosterone levels | plasma corticosterone concentrations ([3]; four hours post-injection, CORT-UN p<0.01, CORT-CONT p=0.07): only significantly elevated in CORT-treated hens | effect on ovulation or oviposition rates [4]: Neither the control nor the corticosterone treatment had an effect on ovulation or oviposition rates | testosterone concentrations after CORT [5]: testosterone concentrations increased significantly | implanted birds that continued to lay at a similar frequency ([6]; silastic CORT implants, laying monitored for 2 weeks after implantation): 100% | CORT concentrations after silastic CORT implants ([6]; within 2 d of implantation, persisted 1 week after implantation): significantly elevated CORT concentrations | offspring sex ratio with long-term CORT elevation [7]: sex ratios were skewed significantly towards females

Reference: patent publication US8889662B2, “Method to alter sex ratios in avian offspring” (University of Georgia Research Foundation, Inc., priority 2009, dated 2014)
